By inhibition is commonly meant the share of the control response that was lost under treatment. Low readings indicate little suppression, high ones strong suppression.

Common to all, as to assay: DiscoverX scanMAX competition binding assay
Holding throughout (parameters): purchased Eurofins DiscoverX (scanMAX) / Eurofins enzymatic assays

One assay concerns the target MAP3K11/MLK3 (Homo sapiens, UniProt Q16584). The text has this:
(§1) Based on its narrow profile when tested in the combined Nanosyn and TSA panels, GW296115 was included in the recently released Kinase Chemogenomic Set (KCGS)[15]. All of the data presented in the Introduction section was collected prior to the inclusion of GW296115 in KCGS and everything that follows has been subsequently generated. Since its inclusion in PKIS and more recently KCGS, we have carried out a broader round of screening at DiscoverX. This profiling data has not been previously released and is reported here for the first time. GW296115 was profiled against 403 wild type human kinases at 1 μM using the DiscoverX scanMAX screening platform, which employs an active site-directed competition binding assay to quantitatively measure interactions between test compounds and kinases, [16]. GW296115 inhibited 25 kinases > 90% at 1 μM, resulting in a selectivity index (S10) of 0.062 at 1 μM (Table S2, Fig. 1C)[17].
(§2) The scanMAX assays were performed at Eurofins DiscoverX Corporation as previously described.

For a further assay, the target named is FLT3 (Homo sapiens, UniProt P36888).
Chain of FLT3 (P36888 27-993): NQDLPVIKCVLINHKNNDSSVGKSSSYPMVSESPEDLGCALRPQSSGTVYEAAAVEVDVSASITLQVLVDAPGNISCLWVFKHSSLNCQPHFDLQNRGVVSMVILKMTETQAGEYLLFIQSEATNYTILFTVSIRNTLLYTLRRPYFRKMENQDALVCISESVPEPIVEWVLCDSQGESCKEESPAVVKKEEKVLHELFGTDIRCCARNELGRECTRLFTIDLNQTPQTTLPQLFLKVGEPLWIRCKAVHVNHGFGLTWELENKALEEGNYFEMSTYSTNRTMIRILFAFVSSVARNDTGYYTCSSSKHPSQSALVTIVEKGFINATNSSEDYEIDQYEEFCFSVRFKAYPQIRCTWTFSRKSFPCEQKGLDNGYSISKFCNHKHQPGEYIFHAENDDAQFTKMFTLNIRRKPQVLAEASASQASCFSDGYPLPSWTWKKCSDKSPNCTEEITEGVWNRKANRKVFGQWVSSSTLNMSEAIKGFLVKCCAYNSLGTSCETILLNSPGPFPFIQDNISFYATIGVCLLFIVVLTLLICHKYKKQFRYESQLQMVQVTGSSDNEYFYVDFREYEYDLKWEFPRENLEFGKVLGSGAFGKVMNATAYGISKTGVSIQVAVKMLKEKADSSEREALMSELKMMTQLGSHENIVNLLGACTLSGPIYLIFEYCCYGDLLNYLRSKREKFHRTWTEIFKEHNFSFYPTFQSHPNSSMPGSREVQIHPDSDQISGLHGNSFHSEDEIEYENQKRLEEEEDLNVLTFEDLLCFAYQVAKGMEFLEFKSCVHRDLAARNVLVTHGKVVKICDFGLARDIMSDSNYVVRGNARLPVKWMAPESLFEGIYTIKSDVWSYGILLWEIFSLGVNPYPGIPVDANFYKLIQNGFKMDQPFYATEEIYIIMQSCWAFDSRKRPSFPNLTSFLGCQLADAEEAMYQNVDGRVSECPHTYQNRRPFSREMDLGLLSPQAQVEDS
Description: as §1, §2

The target in a further assay is AURKC (Homo sapiens, UniProt Q9UQB9).
Chain of AURKC (Q9UQB9 whole entry): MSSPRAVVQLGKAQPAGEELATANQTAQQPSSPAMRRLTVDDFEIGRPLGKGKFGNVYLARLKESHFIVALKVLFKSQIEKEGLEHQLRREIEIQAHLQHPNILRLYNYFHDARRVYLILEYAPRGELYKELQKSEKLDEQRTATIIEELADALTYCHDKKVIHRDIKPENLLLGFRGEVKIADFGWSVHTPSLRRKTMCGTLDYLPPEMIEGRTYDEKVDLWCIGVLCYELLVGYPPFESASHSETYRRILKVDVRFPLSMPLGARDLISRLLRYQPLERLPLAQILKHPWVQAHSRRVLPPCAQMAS
Description: as §1, §2

For a further assay, the target named is PLK4 (Homo sapiens, UniProt O00444).
Description: as §1, §2

In a further assay the target is MYLK/MLCK/smMLCK (Homo sapiens, UniProt Q15746).
Chain of MYLK/MLCK/smMLCK (Q15746 whole entry): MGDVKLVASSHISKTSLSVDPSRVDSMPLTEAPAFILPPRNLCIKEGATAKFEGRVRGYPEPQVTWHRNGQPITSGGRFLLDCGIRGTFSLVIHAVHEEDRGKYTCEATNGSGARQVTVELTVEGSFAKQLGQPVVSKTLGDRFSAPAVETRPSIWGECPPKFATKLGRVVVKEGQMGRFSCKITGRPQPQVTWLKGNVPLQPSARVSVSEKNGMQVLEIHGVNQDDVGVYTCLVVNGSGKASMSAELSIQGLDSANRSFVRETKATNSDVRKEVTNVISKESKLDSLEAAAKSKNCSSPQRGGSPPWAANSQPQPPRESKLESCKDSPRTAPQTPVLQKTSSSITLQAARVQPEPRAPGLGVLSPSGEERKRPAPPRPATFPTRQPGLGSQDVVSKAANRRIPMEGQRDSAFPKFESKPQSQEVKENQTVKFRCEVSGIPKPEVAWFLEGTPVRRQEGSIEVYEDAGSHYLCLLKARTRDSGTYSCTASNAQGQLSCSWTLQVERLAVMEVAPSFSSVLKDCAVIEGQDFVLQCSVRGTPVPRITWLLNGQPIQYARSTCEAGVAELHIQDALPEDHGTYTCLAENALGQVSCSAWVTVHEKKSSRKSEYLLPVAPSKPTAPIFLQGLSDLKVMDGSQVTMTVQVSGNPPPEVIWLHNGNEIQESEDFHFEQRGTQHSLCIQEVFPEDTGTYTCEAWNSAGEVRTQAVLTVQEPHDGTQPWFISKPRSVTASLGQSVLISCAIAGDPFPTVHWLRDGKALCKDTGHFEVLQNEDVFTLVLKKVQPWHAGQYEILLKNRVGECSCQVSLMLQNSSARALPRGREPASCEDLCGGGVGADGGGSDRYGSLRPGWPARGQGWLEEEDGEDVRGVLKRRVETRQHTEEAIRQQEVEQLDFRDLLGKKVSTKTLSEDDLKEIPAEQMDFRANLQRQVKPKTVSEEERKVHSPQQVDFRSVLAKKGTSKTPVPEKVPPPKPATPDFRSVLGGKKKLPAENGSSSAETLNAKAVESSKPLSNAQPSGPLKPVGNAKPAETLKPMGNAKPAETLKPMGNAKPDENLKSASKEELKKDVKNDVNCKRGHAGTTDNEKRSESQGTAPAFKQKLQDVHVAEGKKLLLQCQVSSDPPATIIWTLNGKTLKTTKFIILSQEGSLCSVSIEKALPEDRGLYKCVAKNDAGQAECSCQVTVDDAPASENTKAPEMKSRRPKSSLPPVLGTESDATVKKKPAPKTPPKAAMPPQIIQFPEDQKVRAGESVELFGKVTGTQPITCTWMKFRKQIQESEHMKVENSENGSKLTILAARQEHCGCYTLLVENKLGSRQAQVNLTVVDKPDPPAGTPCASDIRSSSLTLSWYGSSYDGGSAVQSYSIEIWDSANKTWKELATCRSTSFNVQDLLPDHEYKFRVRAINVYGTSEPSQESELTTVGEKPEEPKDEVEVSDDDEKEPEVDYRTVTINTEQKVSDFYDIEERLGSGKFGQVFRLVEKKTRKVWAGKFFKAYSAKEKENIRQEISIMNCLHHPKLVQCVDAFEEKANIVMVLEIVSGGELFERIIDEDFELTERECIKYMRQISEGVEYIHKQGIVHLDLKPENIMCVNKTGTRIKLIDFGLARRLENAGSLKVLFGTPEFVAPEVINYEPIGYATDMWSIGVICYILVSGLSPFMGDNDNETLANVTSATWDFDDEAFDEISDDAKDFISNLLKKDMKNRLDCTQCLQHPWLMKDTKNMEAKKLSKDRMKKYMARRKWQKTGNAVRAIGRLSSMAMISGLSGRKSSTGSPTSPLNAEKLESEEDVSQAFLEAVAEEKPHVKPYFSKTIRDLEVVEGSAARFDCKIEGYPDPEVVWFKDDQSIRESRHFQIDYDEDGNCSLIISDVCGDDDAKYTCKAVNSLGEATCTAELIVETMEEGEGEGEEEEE
Description: as §1, §2

In the next assay the target is SGK1/SGK (Homo sapiens, UniProt O00141).
Chain of SGK1/SGK (O00141 whole entry): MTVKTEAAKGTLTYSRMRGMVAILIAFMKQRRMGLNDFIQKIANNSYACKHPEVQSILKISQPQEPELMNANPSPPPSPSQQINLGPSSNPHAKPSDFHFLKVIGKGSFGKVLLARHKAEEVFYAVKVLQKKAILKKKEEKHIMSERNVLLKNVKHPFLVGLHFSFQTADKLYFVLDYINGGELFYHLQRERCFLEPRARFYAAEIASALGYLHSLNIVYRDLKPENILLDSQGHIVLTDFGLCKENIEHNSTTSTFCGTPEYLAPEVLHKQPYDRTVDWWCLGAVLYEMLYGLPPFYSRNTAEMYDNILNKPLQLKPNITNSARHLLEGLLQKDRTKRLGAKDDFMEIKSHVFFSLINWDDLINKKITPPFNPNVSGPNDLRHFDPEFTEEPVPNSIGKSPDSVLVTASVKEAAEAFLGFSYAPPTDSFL
Description: as §1, §2

For the next assay, the target named is LRRK2 (Homo sapiens, UniProt Q5S007).
Description: as §1, §2

The target of another assay is STK33 (Homo sapiens, UniProt Q9BYT3).
Description: as §1, §2

The target in another assay is CHEK2 (Homo sapiens, UniProt O96017).
Chain of CHEK2 (O96017 whole entry): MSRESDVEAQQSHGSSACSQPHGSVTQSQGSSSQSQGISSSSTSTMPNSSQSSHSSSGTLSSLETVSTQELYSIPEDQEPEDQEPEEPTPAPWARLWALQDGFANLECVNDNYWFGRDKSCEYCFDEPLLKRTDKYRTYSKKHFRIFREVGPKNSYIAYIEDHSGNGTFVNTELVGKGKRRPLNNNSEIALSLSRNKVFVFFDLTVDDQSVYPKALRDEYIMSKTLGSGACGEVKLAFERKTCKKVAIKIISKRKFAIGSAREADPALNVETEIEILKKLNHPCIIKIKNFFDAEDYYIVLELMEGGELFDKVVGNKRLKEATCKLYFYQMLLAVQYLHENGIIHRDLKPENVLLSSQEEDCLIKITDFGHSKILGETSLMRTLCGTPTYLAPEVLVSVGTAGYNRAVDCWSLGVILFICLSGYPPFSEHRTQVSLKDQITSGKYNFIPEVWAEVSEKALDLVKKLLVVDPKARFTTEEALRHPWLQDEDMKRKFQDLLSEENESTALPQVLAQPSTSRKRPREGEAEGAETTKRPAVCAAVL
Description: as §1, §2

In another assay the target is STK17A/DRAK1 (Homo sapiens, UniProt Q9UEE5).
Chain of STK17A/DRAK1 (Q9UEE5 whole entry): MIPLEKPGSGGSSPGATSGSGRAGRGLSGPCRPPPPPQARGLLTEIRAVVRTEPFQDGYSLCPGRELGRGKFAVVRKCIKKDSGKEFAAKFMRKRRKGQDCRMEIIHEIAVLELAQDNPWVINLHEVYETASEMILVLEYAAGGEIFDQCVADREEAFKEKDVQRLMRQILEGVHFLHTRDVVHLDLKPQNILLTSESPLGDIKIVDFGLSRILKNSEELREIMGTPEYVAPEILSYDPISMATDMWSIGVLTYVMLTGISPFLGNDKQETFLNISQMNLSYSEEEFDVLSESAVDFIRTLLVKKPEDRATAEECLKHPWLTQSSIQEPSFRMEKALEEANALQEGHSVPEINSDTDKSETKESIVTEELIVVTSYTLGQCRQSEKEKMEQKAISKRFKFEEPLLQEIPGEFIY
Description: as §1, §2

For the compound `COc1ccc2[nH]c3c4[nH]c5ccc(OC)cc5c4c4c(c3c2c1)C(=O)NC4=O` [GW296115], the inhibition at 1 µM on MAP3K11/MLK3 stood at 92.4%; on FLT3, 91.5%; on AURKC it was 94.1%; at PLK4, 99.5%; on MYLK/MLCK/smMLCK, 95.4%; on SGK1/SGK it was 91.2%. For the same compound, the inhibition at 1 µM at LRRK2 is 100%; at STK33, 92%; on CHEK2 it was 92.5%; on STK17A/DRAK1 it was 99.6%.

Values taken from publication PMC7522982, “PKIS deep dive yields a chemical starting point for dark kinases and a cell active BRSK2 inhibitor” (Scientific Reports, 2020).
